US20220062247A1, “USE OF A PAR-1 ANTAGONIST FOR THE TREATMENT OF A CHRONIC INFLAMMATORY INTESTINAL DISEASE” (CVASTHERA, priority 2018, published 2022)

Tests used:
[1] = system: inflammatory bowel disease, Dextran Sulphate sodium (DSS); experiment: Dextran Sulphate sodium (DSS) model of inflammatory bowel disease in mice (body weight, DAI, macroscopic damage score, MPO); type: in vivo, mice (C57B16); set-up: Disease activity index, D1 / Disease activity index, D2 / Disease activity index, D3 / Disease activity index, D4 / Disease activity index, D5 / Disease activity index, D6 / Disease activity index, D7 / macroscopic damage score: scale not given here
Excerpt: The purpose of this study is to assess the effectiveness of a PAR-1 antagonist according to the invention, 3-2-(chloro-phenyl)-1-[4-(4-fluoro-benzyl)-piperazine-1-yl]propenone (CSI) in a model of an inflammatory bowel disease, Dextran Sulphate sodium (DSS) in mice. This DSS model is described in the publication of Choi et al., 2010, in J. Biomed. Biotechnol., 2010:943516; doi: 10.1155/2010/943516.
This model features a cytokine profile Th1 in its acute phase, periods of remission and relapses, it is consequently very similar to ulcerous colitis. The DSS distributed in the drinking water can cause an inflammation of the digestive tract and produce colorectal tumours in the rodent. The DSS is widely used as an animal model of human inflammatory diseases of the digestive tract.
The present study is conducted in 7-week-old mice (C57B16). The 5-aminosalicylic acid serves as a positive comparative example.
The first day of the study starts with the daily administration of a beverage containing DSS at 5% p/p in water to the mice, until the day of sacrifice. The development of the disease is estimated on a daily basis, with accurate weighting of the mice, the assessment of the consistence of the excrements as well as the presence of blood in the faeces with the Hemoccult® paper test. The DAI score is calculated as indicated in Example 1.
Each day, groups of mice receive per os CSI at different concentrations, or 5-aminosalicylic acid (5-ASA), or the vehicle alone, that is to say carboxymethyl cellulose (CMC) at 1%.
The mice are sacrificed 7 days after the beginning of the treatment. The colon is excised and the macroscopic damages are assessed. The colon is then cut into 4 pieces, the distal portion is placed in an Eppendorf tube and stored at −80° C. until the measurement of the activity of myeloperoxidase and the quantification of proteins. The proximal portion is kept in formaline at 10% for future histological analyses. The two other central portions are placed in Eppendorf tubes and stored at −80° C. for future analyses.
On day 7, after having sacrificed the animals, the colon is removed. The macroscopic damage score, assessed as described in Example 1, and the myeloperoxidase (MPO) activity are determined.

[2] = system: inflammatory bowel disease induced by 2,4,6-trinitrobenzenesulfonic acid (TNBS); experiment: Colitis induced by intra-colonical TNBS in rats (body weight, DAI score, colon wall thickness, macroscopic damage score, MPO); type: in vivo, male laboratory rat of the Wistar strain
Excerpt: The purpose of this study is to assess the effectiveness of two PAR-1 antagonists, vorapaxar and 3-2-(chloro-phenyl)-1-[4-(4-fluoro-benzyl)-piperazine-1-yl]propenone (hereinafter, referred to as CSI) in a model of an inflammatory bowel disease induced by 2,4,6-trinitrobenzenesulfonic acid (TNBS) in a male laboratory rat of the Wistar strain. This model is described in the publication of Whittle et al., 2003, in Methods Mol. Biol., 225, 209-222.
In this induced colitis model, the inflammatory reaction is measured every day and is well established 7 days after intra-colonical administration of TNBS.
(§1) Different parameters are measured: the weight of the rats, the presence of blood in the faeces and the diarrhoeas assessed by the disease activity index (DAI score), the intensity of pain (assessed by Von Frey filaments technique measured on days 3 and 7).
The rats are sacrificed 7 days after the beginning of the treatment and the macroscopic damages, the oedema and a marker of the inflammation, myeloperoxidase (MPO), are quantified.
The experiments with the PAR-1 antagonists are carried out in two studies, relating to vorapaxar and CSI, respectively.
The colitis is induced by intra-colonical administration of 2,4,6-trinitrobenzenesulfonic acid (TNBS) (30 mg of TNBS in 0.25 ml of a 50% ethanol/NaCl solution) via a catheter (polyethylene (PE)-60) inserted 8 cm proximally from the anus.
Four groups of 10 rats receive an intra-colonical administration of TNBS, as well as a per os treatment of vorapaxar at the dose of 2.5 mg/kg/day or of CSI at doses of 10 and 40 mg/kg/day or of prednisolone (a compound proposed by the prior art for the treatment of IBDs) at the dose of 3 mg/kg/day. The per os treatments start 1 h before the intra-colonical administration of TNBS.
As a negative comparative example, 1 group of 10 rats receives an intra-colonical administration of TNBS and of the vorapaxar vehicle (phosphate buffered saline—PBS) or of the CSI vehicle (carboxymethyl cellulose—CMC at 1%) per os daily.
Moreover, 1 group of 6 control rats receives an intra-colonical administration of NaCl instead of TNBS.
The DAI score is determined as follows. The development of the disease is estimated on a daily basis. The consistence of the excrements, as well as the presence of blood in the faeces assessed with the Hemoccult® paper test, are respectively quantified by the seriousness scales of Table 3 hereinbelow. The obtained values are added together to obtain the DAI score.
The macroscopic damage score is assessed according to the protocol described in the publication of Comera et al., 1999, Dig. Dis. Sci. 44: 1448-1457, as follows. On day 7 after induction of the colitis, the rats are sacrificed by carbon dioxide CO2 inhalation, the colon (from the anus to the Caecum) is removed and the macroscopic damages are assessed according to the parameters observed and presented in Table 4 hereinbelow, to determine the macroscopic damage score.

[3] = system: nociceptive response induced by TNBS; experiment: Nociceptive response (allodynia) by Von Frey filaments technique in TNBS colitis rats; type: in vivo, rat; settings: 3 mg/kg/day, 7 days after colitis induction
Method: as §1
The intensity of the pain is measured by the Von Frey filaments technique on days […], according to the protocol described in the publication of Auge et al., 2013, Eur. J. Pharmacol. 707: 32-40.
The effect on the nociceptive response, measured by Von Frey filaments technique according to the mass of Von Frey filaments, is shown in FIG. 10 for prednisolone and in FIG. 11 for vorapaxar.

[4] = DSS 5%, Group 5, 50 mg/kg/24 h per os, Moy
[5] = DSS mice, 50 mg/kg daily oral (Group 5), all observed points
[6] = DSS 5%, Group 2, 10 mg/kg/24 h per os, Moy
[7] = DSS 5%, Group 3, 40 mg/kg/24 h per os, Moy

Nc1ccc(O)c(C(=O)O)c1 [5-ASA, 5-aminosalicylic acid, reference compound]
Disease activity index, D1 [1, 4]: 1.64 | Disease activity index, D2 [1, 4]: 1.25 | Disease activity index, D3 [1, 4]: 1.92 | Disease activity index, D4 [1, 4]: 3.50 | Disease activity index, D5 [1, 4]: 4.00 | Disease activity index, D6 [1, 4]: 4.00 | Disease activity index, D7 [1, 4]: 3.20 | Variation of the body weight of the mice in comparison with day D0, D1-D0 [1, 4]: 0.64 g | Variation of the body weight of the mice in comparison with day D0, D2-D0 [1, 4]: 0.64 g | Variation of the body weight of the mice in comparison with day D0, D3-D0 [1, 4]: 1.05 g | Variation of the body weight of the mice in comparison with day D0, D4-D0 [1, 4]: -0.03 g | Variation of the body weight of the mice in comparison with day D0, D5-D0 [1, 4]: -1.67 g | Variation of the body weight of the mice in comparison with day D0, D6-D0 [1, 4]: -3.68 g | Variation of the body weight of the mice in comparison with day D0, D7-D0 [1, 4]: -4.76 g | macroscopic damage score ([1]; DSS 5%, Group 5, 50 mg/kg/24 h per os, day 7, Moy): 6.5 | MPO activity ([1]; DSS 5%, Group 5, 50 mg/kg/24 h per os, day 7, colon, Moy): 9.34 mU/mg proteins | macroscopic damage score ([1]; DSS mice, 50 mg/kg (Group 5), vs vehicle group (Group 4)): significantly reduces | increase of the disease activity index [1, 5]: prevents neither | weight loss [1, 5]: prevents neither

O=C(/C=C/c1ccccc1Cl)N1CCN(Cc2ccc(F)cc2)CC1 [CSI, 3-2-(chloro-phenyl)-1-[4-(4-fluoro-benzyl)-piperazine-1-yl]propenone]
Disease activity index, D1 [1, 6]: 1.40 | Disease activity index, D2 [1, 6]: 1.35 | Disease activity index, D3 [1, 6]: 2.00 | Disease activity index, D4 [1, 6]: 3.75 | Disease activity index, D5 [1, 6]: 4.00 | Disease activity index, D6 [1, 6]: 4.00 | Disease activity index, D7 [1, 6]: 2.90 | Variation of the body weight of the mice in comparison with day D0, D1-D0 [1, 6]: 0.67 g | Variation of the body weight of the mice in comparison with day D0, D2-D0 [1, 6]: 0.44 g | Variation of the body weight of the mice in comparison with day D0, D3-D0 [1, 6]: 0.45 g | Variation of the body weight of the mice in comparison with day D0, D4-D0 [1, 6]: -0.42 g | Variation of the body weight of the mice in comparison with day D0, D5-D0 [1, 6]: -2.15 g | Variation of the body weight of the mice in comparison with day D0, D6-D0 [1, 6]: -3.79 g | Variation of the body weight of the mice in comparison with day D0, D7-D0 [1, 6]: -5.19 g | macroscopic damage score ([1]; DSS 5%, Group 2, 10 mg/kg/24 h per os, day 7, Moy): 5.2 | MPO activity ([1]; DSS 5%, Group 2, 10 mg/kg/24 h per os, day 7, colon, Moy): 12.99 mU/mg proteins | Disease activity index, D1 [1, 7]: 2.00 | Disease activity index, D2 [1, 7]: 1.10 | Disease activity index, D3 [1, 7]: 1.50 | Disease activity index, D4 [1, 7]: 2.80 | Disease activity index, D5 [1, 7]: 4.00 | Disease activity index, D6 [1, 7]: 4.00 | Disease activity index, D7 [1, 7]: 3.00 | Variation of the body weight of the mice in comparison with day D0, D1-D0 [1, 7]: -0.08 g | Variation of the body weight of the mice in comparison with day D0, D2-D0 [1, 7]: -0.07 g | Variation of the body weight of the mice in comparison with day D0, D3-D0 [1, 7]: -0.19 g | Variation of the body weight of the mice in comparison with day D0, D4-D0 [1, 7]: -0.68 g | Variation of the body weight of the mice in comparison with day D0, D5-D0 [1, 7]: -1.07 g | Variation of the body weight of the mice in comparison with day D0, D6-D0 [1, 7]: -2.69 g | Variation of the body weight of the mice in comparison with day D0, D7-D0 [1, 7]: -4.00 g | macroscopic damage score ([1]; DSS 5%, Group 3, 40 mg/kg/24 h per os, day 7, Moy): 4.0 | MPO activity ([1]; DSS 5%, Group 3, 40 mg/kg/24 h per os, day 7, colon, Moy): 6.9 mU/mg proteins | disease activity index ([1]; DSS mice, 10 mg/kg daily (Group 2), 7th day): significantly reduces | MPO activity ([1]; DSS mice, 40 mg/kg (Group 3)): strongly reduced | disease activity index ([1]; DSS mice, 40 mg/kg (Group 3), 4th and 7th day, vs vehicle group (Group 4)): significantly reduced | weight loss ([1]; DSS mice, 40 mg/kg (Group 3), 6th day): significantly reduces | daily signs of colitis ([1]; DSS mice, 10 and 40 mg/kg, seems more effective than 5-ASA): reduces, significantly and in a dose-dependent way | macroscopic damage score ([1]; DSS mice, both tested doses 10 and 40 mg/kg (Groups 2 and 3), vs vehicle group (Group 4)): significantly reduces | disease activity index (DAI) ([2]; 10 mg/kg daily, 7th day): significantly reduces | MPO activity ([2]; 40 mg/kg/day, day 7): significantly reduced | macroscopic damage score ([2]; 10 and 40 mg/kg/day (tested doses), day 7, vs vehicle group): significantly reduces | weight loss (body weight) ([2]; 10 or 40 mg/kg/day per os): alleviate

C[C@]12C=CC(=O)C=C1CC[C@@H]1[C@@H]2[C@@H](O)C[C@@]2(C)[C@H]1CC[C@]2(O)C(=O)CO [prednisolone]
apparition of oedema (thickness of the wall of the colon) ([2]; 3 mg/kg daily oral, 7 days): does not prevent | disease activity index (DAI) ([2]; 3 mg/kg daily oral, all observed points): does not prevent the increase | macroscopic damage score ([2]; 3 mg/kg, day 7, vs vehicle group): significantly reduces | weight loss (body weight) ([2]; 3 mg/kg/day per os): alleviate | MPO activity ([2]; 3 mg/kg/day, day 7, vs vehicle group): significantly reduce | allodynia-type response (Von Frey) [3]: only a partial inhibition
